For experiment [1], the system named is A549 and SK-MEL2 cells. Nature of the experiment: γH2AX phosphorylation immunofluorescence (marker for DNA breaks). The class given is cell-based, human. To be noted: FIG. 4A. The procedure:
(§1) Cells were treated using a previously reported plasma jet device. A typical operating condition of the pulsed-dc plasma jet has the applied voltage 1.6 kV, repetition frequency 50 kHz, and duty ratio 10%. The working gas (helium) and reactive gas (oxygen) flow rate were kept constant at 500 and 5 SCCM (SCCM denotes cubic centimeter per minute at standard temperature and pressure), respectively. The cells were cultured on 12-mm microscope cover glass coated with gelatin from porcine skin (Sigma-Aldrich) and were treated with helium generated-NTP with or without the flow of oxygen gas. The exposed cover glass was then transferred to 12-well plates containing fresh medium and incubated at 37° C. in a humidified incubator supplemented with 5% CO2. If necessary, the cells were treated with 5 or 10 μM of specific inhibitors targeting ATR (ETP46464), ATM (KU55933), DNA-PK (NU7026), or PARP1 (AZD2281) for 1 h before plasma treatment and kept until cell harvest. […]
(§2) For immunofluorescence staining, cells were fixed with 4% formaldehyde (Sigma-Aldrich) for 10 min at room temperature and permeabilized with 0.5% Triton™ X-100 (Bio Basic). […] The images were captured using a fluorescence microscope (Nikon) equipped with the NIS-Elements 4.0 Nikon imaging software. For quantification, a minimum of 500 cells were analyzed from each of three independent experiments.

In experiment [2] the test system is A549 and SKMEL2 cells. Nature of the experiment: CHK1 phosphorylation immunofluorescence after kinase inhibitor pretreatment and NTP or NTPO. The class given is cell-based, human. The settings on record: inhibitor pretreatment (5 or 10 μM, 1 h before plasma), followed by NTP or NTPO; FIG. 3A. On the procedure:
as §1, §2

As to `O=C(c1cc(Cc2n[nH]c(=O)c3ccccc23)ccc1F)N1CCN(C(=O)C2CC2)CC1` [AZD2281, olaparib], the γH2AX phosphorylation entry in experiment [1] (PARP-1 inhibitor plus treatment of NTP or NTPO) was “significantly increased”; in experiment [1] (PARP-1 inhibitor, gas control), “measured even in the case of gas control”.

On to `CC(C)(C#N)c1ccc(N2C(=O)OCc3cnc4ccc(-c5cnc6ccccc6c5)cc4c32)cc1` [ETP 46464], for which the CHK1 phosphorylation result in experiment [2] is “phosphorylation was not shown”.

Source of the values: US20170319256A1, “METHOD OF SELECTIVELY KILLING CANCER CELLS USING LOW-TEMPERATURE PLASMA JET DEVICE AND METHOD OF TREATING TUMORS USING THE SAME” (Dong-A University Research Foundation for Industry-Academy …, priority 2016, published 2017).
